Target: T1, Delta carbonic anhydrase (Conticribra weissflogii, UniProt Q5U9J1)
T1 sequence (Q5U9J1 whole entry): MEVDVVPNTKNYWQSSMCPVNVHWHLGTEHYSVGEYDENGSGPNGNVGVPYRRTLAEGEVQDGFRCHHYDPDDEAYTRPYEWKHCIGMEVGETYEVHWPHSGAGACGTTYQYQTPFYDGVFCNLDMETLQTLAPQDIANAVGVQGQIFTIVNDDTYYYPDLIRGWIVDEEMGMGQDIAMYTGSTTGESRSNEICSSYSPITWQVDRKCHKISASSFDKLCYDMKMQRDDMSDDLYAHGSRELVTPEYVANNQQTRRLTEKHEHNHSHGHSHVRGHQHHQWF

NS(=O)(=O)c1ccc(CCNS(=O)(=O)c2ccc([N+](=O)[O-])cc2CO)cc1 was tested, and the Ki was 7880 nM.

With NS(=O)(=O)c1cccc(S(N)(=O)=O)c1 the Ki was 424 nM.

NS(=O)(=O)c1cc(Cl)cc(Cl)c1O showed a Ki of 762 nM.

Nc1nnc(S(N)(=O)=O)s1 showed a Ki of 10600 nM.

Nc1ccc(S(=O)(=O)NCc2ccc(S(N)(=O)=O)cc2)cc1 showed a Ki of 897 nM.

Compound Nc1ccc(S(=O)(=O)Nc2nnc(S(N)(=O)=O)s2)cc1 has a Ki of 12400 nM.

For Nc1ccc(S(=O)(=O)Nc2ccc(S(N)(=O)=O)cc2)cc1, the Ki was 3740 nM.

In the case of Nc1nccc(Nc2ccc(S(N)(=O)=O)cc2)n1, the Ki is reported as 615 nM.

In the case of Nc1ccc(S(N)(=O)=O)cc1Br, the Ki is reported as 94.6 nM.

Cn1nc(S(N)(=O)=O)sc1=N showed a Ki of 5530 nM.

NS(=O)(=O)c1ccc(CCO)cc1 showed a Ki of 4700 nM.

For Nc1cccc(S(N)(=O)=O)c1, the Ki was 295 nM.

With NS(=O)(=O)c1ccc(CO)cc1 the Ki was 15200 nM.

Nc1ccc(S(N)(=O)=O)cc1Cl showed a Ki of 167 nM.

Nc1ccc(S(=O)(=O)NCCc2ccc(S(N)(=O)=O)cc2)cc1 gave a Ki of 862 nM.

NS(=O)(=O)c1ccc(S(=O)(=O)Nc2cccc3c(Cl)c[nH]c23)cc1 was tested, and the Ki was 375 nM.

NS(=O)(=O)c1nnc(NS(=O)(=O)c2ccccc2)s1 [BENZOLAMIDE] was tested, and the Ki was 394 nM.

For CCN[C@H]1CN(CCCOC)S(=O)(=O)c2sc(S(N)(=O)=O)cc21 [BRINZOLAMIDE], the Ki was 118 nM.

NS(=O)(=O)c1ccc(C(=O)O)cc1 [CARZENIDE] was tested, and the Ki was 871 nM.

In the case of Cc1ccc(-c2cc(C(F)(F)F)nn2-c2ccc(S(N)(=O)=O)cc2)cc1 [CELECOXIB], the Ki is reported as 265 nM.

Work on NS(=O)(=O)c1cc(Cl)c(Cl)c(S(N)(=O)=O)c1 [DICHLORPHENAMIDE] yielded a Ki of 458 nM.

Work on NCc1ccc(S(N)(=O)=O)cc1 [MAFENIDE] yielded a Ki of 424 nM.

CC(=O)/N=c1/sc(S(N)(=O)=O)nn1C [METHAZOLAMIDE] showed a Ki of 170 nM.

Cc1ccc(S(N)(=O)=O)cc1 [P-TOLUENESULFONAMIDE] was tested, and the Ki was 424 nM.

O=C1NS(=O)(=O)c2ccccc21 [SACCHARIN] gave a Ki of 9200 nM.

Compound CC1(C)O[C@@H]2[C@@H](CO[C@@]3(COS(N)(=O)=O)OC(C)(C)O[C@@H]23)O1 [TOPIRAMATE] has a Ki of 392 nM.

In the case of NS(=O)(=O)Cc1noc2ccccc12 [ZONISAMIDE], the Ki is reported as 404 nM.
